Measurements taken from patent US6455593B1, “Method of dynamic retardation of cell cycle kinetics to potentiate cell damage” (priority 1995, dated 2002).

Tested on: U937 cells
Experiment: DNA gel electrophoresis for DNA fragmentation (apoptosis)
Assay type: cell-based, human
Settings: 50 nM STSP, 8 hours, U937
Experimental: Samples of the U937 cells were exposed to a series of concentrations of dThd for 24 hr. Their DNA was isolated by lysis of cell samples in TE buffer containing TRIS 10 mM, EDTA 10 mM, SDS 0.5% and proteinase K 200 μg/ml at […] for 2 h. The proteins were precipitated in a IM solution of NaCl and centrifuged at 2,500×g for 30 min at […] DNAse free RNase (25 μg/ml) was added to the supernatant and incubated for 30 min at 37° C. Spectrophotometric quantitation of the DNA in the supernatant was quantitated by absorbance spectrophotometry at 260 nm. Volumes adjusted to contain equal amounts of DNA were mixed with a loading buffer of 40% (w/v) sucrose, 0.1M EDTA pH 8.0, 0.5% (w/v) sodium lauryl sulphate and 0.05% (w/v) bromophenol blue. […] Separated bands of DNA were stained with ethidium bromide and photographed in UV light (Fotodyne Inc.). […] The lowest molecular weight (about 180 bp) was determined with a standard 123 bp ladder from Sigma Chemical Co. (Cat. #D5042). The result shown is a classical “DNA ladder,” characteristic of the fragmentation of DNA macromolecules in apoptosis. See Tomei, supra; Obeid, supra; Gold, supra.

CN[C@@H]1C[C@H]2O[C@@](C)([C@@H]1OC)n1c3ccccc3c3c4c(c5c6ccccc6n2c5c31)C(=O)NC4 [STSP, staurosporine]
DNA ladder pattern fragmentation: DNA fragmentation in U937 cells in 8 hours
